The results in this text go back to PubChem BioAssay (NCI).

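Compound exposure: 48 hours, 5 concentrations, 96-well plates. At the TGI there is no net growth.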

Among the test systems are SF-268 CNS; MDA-N; BT-549 breast; HL-60(TB) leukemia; HCC-2998 colon; ACHN renal; MCF7 breast; OVCAR-5 ovarian; MALME-3M melanoma; NCI-H23 lung.
Common to all, as to test: NCI-60 cell line screen, 48 h

Consider `Cc1cccc2c1C(=O)[C@@](C)([C@]1(C)Nc3cccc(C)c3C1=O)N2`, for which the TGI was more than 100 µM in the assay with SF-268 CNS; more than 100 µM in the assay with MDA-N; more than 100 µM with BT-549 breast; 7.9 µM in the assay with HL-60(TB) leukemia; more than 100 µM in the assay on HCC-2998 colon; more than 100 µM in the assay with ACHN renal. For the same compound, the TGI in the assay with MCF7 breast, in the assay on OVCAR-5 ovarian, with MALME-3M melanoma and in the assay on NCI-H23 lung was more than 100 µM throughout.

As to `OC(O)(C(F)(F)F)C(F)(F)F`, the TGI with SF-268 CNS, with MDA-N, with BT-549 breast, in the assay on HL-60(TB) leukemia, in the assay on HCC-2998 colon and in the assay on ACHN renal was more than 100 µM throughout. Also, the TGI with MCF7 breast, with OVCAR-5 ovarian, in the assay with MALME-3M melanoma and in the assay with NCI-H23 lung was more than 100 µM in each case.

Regarding `C=C1C(=O)O[C@H]2C3C(=C(C)CC[C@@H]12)C(=O)[C@@H]1OC31C` (stereo not given in full), the TGI with SF-268 CNS amounted to 12.6 µM; in the assay with MDA-N, 3.95 µM; in the assay on BT-549 breast, 4.6 µM; with HL-60(TB) leukemia it was 0.469 µM; in the assay on HCC-2998 colon it was 29.7 µM; with ACHN renal it was 8.07 µM. In addition, the TGI with MCF7 breast came to 11.2 µM; with OVCAR-5 ovarian, 23.3 µM; in the assay with MALME-3M melanoma, 4.66 µM; in the assay with NCI-H23 lung it was 6.4 µM.

As to `Cn1c(=O)c2[nH]c(CCC(=O)O)nc2n(C)c1=O`, the TGI with SF-268 CNS, with MDA-N, in the assay with BT-549 breast, with HL-60(TB) leukemia, in the assay on HCC-2998 colon and in the assay with ACHN renal was more than 100 µM in each case. Further, the TGI in the assay with MCF7 breast, in the assay with OVCAR-5 ovarian, with MALME-3M melanoma and with NCI-H23 lung was more than 100 µM each time.

With `CCC1CCC2c3c([nH]c4ccccc34)C3C(=O)N(c4ccc(OC)cc4)C(=O)C3C2C1` (stereo not given), the TGI was more than 100 µM in the assay with SF-268 CNS; more than 100 µM in the assay with MDA-N; more than 100 µM in the assay with BT-549 breast; 75 µM in the assay on HL-60(TB) leukemia; more than 100 µM with HCC-2998 colon; more than 100 µM in the assay with ACHN renal. In addition, the TGI in the assay with MCF7 breast and with NCI-H23 lung was more than 100 µM each time.

As to `Oc1ccc2ccccc2c1OCc1nnc(CCCCCCCCc2nnc(COc3c(O)ccc4ccccc34)o2)o1`, the TGI in the assay with SF-268 CNS, in the assay on MDA-N, with BT-549 breast, with HCC-2998 colon, in the assay on ACHN renal and with MCF7 breast was more than 100 µM throughout. Moreover, the TGI in the assay with OVCAR-5 ovarian, with MALME-3M melanoma and with NCI-H23 lung was more than 100 µM throughout.

For `COC(=O)C(C(=O)OC)C1CC(=O)c2c(Br)sc(Br)c21` (stereo not given), the TGI is 52.8 µM with SF-268 CNS; more than 100 µM in the assay with MDA-N; 35.7 µM with BT-549 breast; 49.9 µM in the assay with HL-60(TB) leukemia; 27.4 µM with HCC-2998 colon; 26.6 µM in the assay on ACHN renal. Also, the TGI is 73.2 µM with MCF7 breast, 28.9 µM in the assay with OVCAR-5 ovarian, 40 µM with MALME-3M melanoma and 25.4 µM in the assay with NCI-H23 lung.

For `COc1cc(-c2[o+]c3cc(O)cc(OC4OC(CO)C(O)C(O)C4O)c3cc2OC2OC(CO)C(O)C(O)C2O)cc(OC)c1O` (stereo not given), the TGI with SF-268 CNS, with MDA-N, in the assay with BT-549 breast, in the assay with HL-60(TB) leukemia, with HCC-2998 colon and in the assay with ACHN renal was more than 100 µM throughout. The TGI in the assay with MCF7 breast, with OVCAR-5 ovarian, in the assay with MALME-3M melanoma and in the assay with NCI-H23 lung was more than 100 µM throughout.

As to `COc1cc2c(cc1O)CC[C@@H]1C2CC[C@@]2(C)C1CC[C@@H]2O` (stereo not given in full), the TGI with SF-268 CNS was more than 100 µM; in the assay with MDA-N it was 0.574 µM; in the assay with BT-549 breast, more than 100 µM; in the assay with HL-60(TB) leukemia it was 8.18 µM; in the assay with HCC-2998 colon it was 34.3 µM; in the assay with ACHN renal it was more than 100 µM. The TGI was more than 100 µM in the assay with MCF7 breast, more than 100 µM in the assay with OVCAR-5 ovarian, more than 100 µM in the assay with MALME-3M melanoma and 51.7 µM in the assay on NCI-H23 lung.

`CCOC(=O)c1cc(-c2ccn(C(C)=O)c2)c(-c2cc(C)co2)[nH]1`: the TGI with SF-268 CNS, in the assay with MDA-N, in the assay with BT-549 breast, in the assay on HL-60(TB) leukemia, with HCC-2998 colon and in the assay with ACHN renal was more than 100 µM in each case. The TGI with MCF7 breast, in the assay with OVCAR-5 ovarian, in the assay on MALME-3M melanoma and in the assay on NCI-H23 lung was more than 100 µM throughout.

In the case of `Cn1c(=O)c2sc3cc4c(cc3c2c2ccccc21)sc1c(=O)n(C)c2ccccc2c14`, the TGI in the assay on SF-268 CNS is more than 100 µM; in the assay on MDA-N it was more than 100 µM; in the assay with BT-549 breast it was 46.4 µM; in the assay on HL-60(TB) leukemia it was more than 100 µM; with HCC-2998 colon, more than 100 µM; in the assay on ACHN renal, 54.8 µM. Moreover, the TGI with MCF7 breast, in the assay on OVCAR-5 ovarian, in the assay on MALME-3M melanoma and in the assay with NCI-H23 lung was more than 100 µM in each case.

On to `CCOC(=O)CCC(C(=O)OCC)n1nnc2cc(Nc3c(C)[n+]([O-])c4ccc(Cl)cc4[n+]3[O-])ccc21` (stereo not given), for which the TGI in the assay with SF-268 CNS was more than 100 µM; in the assay with MDA-N it was more than 100 µM; with BT-549 breast it was more than 100 µM; with HL-60(TB) leukemia, more than 100 µM; in the assay with ACHN renal, more than 100 µM; in the assay on MCF7 breast it was 93 µM. Further, the TGI in the assay with OVCAR-5 ovarian, with MALME-3M melanoma and with NCI-H23 lung was more than 100 µM each time.

On to `O=S(=O)(/N=C1/SC(=Nc2ccccc2)N(c2ccccc2)/C1=N/S(=O)(=O)c1ccccc1)c1ccccc1`, for which the TGI came out at 34.4 µM in the assay with MDA-N; 79.2 µM in the assay on BT-549 breast; 45.1 µM in the assay with HL-60(TB) leukemia; 48.7 µM with HCC-2998 colon; 68.7 µM in the assay with ACHN renal; 52.7 µM in the assay on MCF7 breast. Moreover, the TGI in the assay with OVCAR-5 ovarian came out at 51.6 µM; with MALME-3M melanoma, 68.6 µM; in the assay with NCI-H23 lung it was 34.5 µM.
